Laboratory results published in patent US4921849A, “Injection containing 3-benzoyloxy-1,3,5(10)-estratriene-17-[4-{p-(bis(2-chloroethyl)amino)phe nyl}butanoyloxy)acetate as an active ingredient” (priority 1987, dated 1990).

Tests used:
estradiol receptor = conditions: cited from earlier work
[1] = oral administration; cited from earlier work
Solubility in oils = assay type: physicochemical
[2] = cited from earlier work
cells = conditions: cited from earlier work
Acute toxicity in rats = assay type: in vivo
Procedure: Concerning an acute toxicity (LD50) of the present derivative, even when rats were administered orally with the maximum administrable amount (6,000 mg/kg), no death case has been observed and when rats were injected intraperitoneally in a form of sesame oil solution, its LD50 has been over 3,000 mg/kg. Accordingly, the present derivative is a medicine extremely high in safety. In a mean while, LD50 of LIPIODOL® has been 7,000 mg/kg when it was administered intravenously to rabbits.

[3] = system: Walker 256 carcino sarcoma; test: Life span of rats bearing Walker 256 carcino sarcoma after injection from the femoral artery; assay type: in vivo, female Wistar rats; conditions: for elongated life time (T/C=test/control): control = physiological saline; for mean survival days (MST): right femoral artery, 8th or 9th day after transplantation
Procedure: A predetermined amount (shown in Table 1) of 3-benzoyloxy-1,3,5(10)-estratriene-17β-[4-{p-(bis(2-chloroethyl)amino)phenyl}butanoyloxy]acetate or adriamycin was added to 6.5 g of LIPIODOL® and the mixture was stirred for 15 minutes at 25° C. to obtain a solution as the injection of each active ingredient. Each solution was put into a sterilized vials.
A walker 256 carcino sarcoma (solid) of about 3 mm square in size was transplanted subcutaneously to the left brachial part and the left femoral part of each of female Wistar rats (the age of 6 weeks and one group consisting of 5 animals) of respective group.
On the 8th or 9th day after the transplantation, each of the injections prepared in Example 1 was injected into each rat of respective testing group from the right femoral artery by a catheter and physiological saline solution or 6.5 g of LIPIODOL® was injected into each rat of the control group or the LIPIODOL group in the same manner as above.
After having observed the state of the test animals, the mean survival days (MST) and the elongated life time (T/C=test/control) were calculated.

| Compound | affinity to the estradiol-receptor (estradiol receptor) | adsorption rate in intestines [1] | solubility in ester of iodinated poppy oil fatty acid (Solubility in oils; ester of iodinated poppy oil fatty acid) | solubility in ordinary oils (Solubility in oils; ordinary oils) | stability in vivo [2] | accumulation in cancer cells versus normal cells ([2]; in vivo) | decomposition/conversion within cells (cells) | death cases (acute toxicity) (Acute toxicity in rats; orally, maximum administrable amount 6,000 mg/kg) | LD50 (Acute toxicity in rats; rat, in vivo, ip, intraperitoneally, sesame oil solution) | elongated life time (T/C=test/control) ([3]; 100 mg in 6.5 g of LIPIODOL) | mean survival days (MST) ([3]; 100 mg in 6.5 g of LIPIODOL) | stability in cells (cells) | elongated life time (T/C=test/control) ([3]; 10 mg in 6.5 g of LIPIODOL) | mean survival days (MST) ([3]; 10 mg in 6.5 g of LIPIODOL) |
| --- | --- | --- | --- | --- | --- | --- | --- | --- | --- | --- | --- | --- | --- | --- |
| C[C@]12CC[C@@H]3c4ccc(OC(=O)c5ccccc5)cc4CC[C@H]3[C@@H]1CC[C@@H]2OC(=O)COC(=O)CCCc1ccc(N(CCCl)CCCl)cc1 [present derivative, 3-benzoyloxy-1,3,5(10)-estratriene-17-[4-{p-(bis(2-chloroethyl)amino)phenyl}-butanoyloxy]acetate] | scarcely any function as an alkylating agent and any affinity to the estradiol-receptor | low adsorption rate | can be uniformly dissolved in the ester | does not completely dissolve in ordinary oils | relatively stable in vivo | accumulates in larger amount in cancer cells than in normal cells | hydrolyzed by an enzyme | no death case | > 3000 mg/kg | 234.3% | 41.0 days | – | – | – |
| C[C@]12CC[C@@H]3c4ccc(O)cc4CC[C@H]3[C@@H]1CC[C@@H]2OC(=O)COC(=O)CCCc1ccc(N(CCCl)CCCl)cc1 [KM-2202, 3-hydroxy-1,3,5(10)-estratriene-17-[4-{p-(bis(2-chloroethyl)amino)phenyl}butanoyloxy]-acetate] | has an affinity to the estradiol receptor | – | – | – | – | – | decomposed slowly into estradiol and chlorambucil within cells | – | – | – | – | relatively unstable in cells | – | – |
| COc1cccc2c1C(=O)c1c(O)c3c(c(O)c1C2=O)C[C@@](O)(C(=O)CO)C[C@@H]3O[C@H]1C[C@H](N)[C@H](O)[C@H](C)O1 [Adriamycin] | – | – | – | – | – | – | – | – | – | < 5.7% | < 1 days | – | 140.7% | 24.5 days |
